Results reported in patent US6737383B1, “Herbicidal oxadiazolidines” (priority 1999, dated 2004).

Assays:
[1] = system: blackgrass; experiment: Test B pre/postemergence blackgrass; format: in vivo, Alopecurus myosuroides
In short: (§1)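 Response is a visual 0-to-10 score relative to untreated plants, where 0 means no effect and 10 means complete control, taken twelve to sixteen days after application. Treatments went onto soil at planting and onto foliage of 1- to 4-leaf plants, using a surfactant-containing non-phytotoxic solvent.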

[2] = system: corn; experiment: Test B pre/postemergence corn; format: in vivo, Zea mays
In short: as §1

[3] = system: smallflower flatsedge; experiment: Test B flood test smallflower flatsedge; format: in vivo, Cyperus difformis
In short: (§2)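 Plants were grown to the 2-leaf stage before treatment with test chemical, then held in a greenhouse for twelve to sixteen days. Injury was visually rated against untreated controls on a 0–10 scale, where 0 is no effect and 10 is complete control.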

[4] = system: velvetleaf; experiment: Test B pre/postemergence velvetleaf; format: in vivo, Abutilon theophrasti
In short: as §1

[5] = system: rape; experiment: Test B pre/postemergence rape; format: in vivo, Brassica napus
In short: as §1

[6] = system: soybean; experiment: Test B pre/postemergence soybean; format: in vivo, Glycine max
In short: as §1

[7] = system: purple nutsedge; experiment: Test B pre/postemergence purple nutsedge; format: in vivo, Cyperus rotundus
In short: as §1

[8] = system: pigweed; experiment: Test B pre/postemergence pigweed; format: in vivo, Amaranthus retroflexus
In short: as §1

[9] = system: morningglory; experiment: Test B pre/postemergence morningglory; format: in vivo, Ipomoea hederacea
In short: as §1

[10] = system: cocklebur; experiment: Test B pre/postemergence cocklebur; format: in vivo, Xanthium strumarium
In short: as §1

[11] = system: wheat; experiment: Test B pre/postemergence wheat; format: in vivo, Triticum aestivum
In short: as §1

[12] = system: crabgrass; experiment: Test B pre/postemergence crabgrass; format: in vivo, Digitaria sanguinalis
In short: as §1

[13] = system: rice; experiment: Test B flood test rice; format: in vivo, Oryza sativa
In short: as §2

[14] = system: sugar beet; experiment: Test B pre/postemergence sugar beet; format: in vivo, Beta vulgaris
In short: as §1

[15] = system: duck salad; experiment: Test B flood test duck salad; format: in vivo, Heteranthera limosa
In short: as §2

[16] = system: giant foxtail; experiment: Test B pre/postemergence giant foxtail; format: in vivo, Setaria faberii
In short: as §1

[17] = Postemergence, Rate 62 g/ha, scale 0 to 10, 0 is no effect, 10 is complete control
[18] = Postemergence, Rate 250 g/ha, scale 0 to 10, 0 no effect, 10 complete control
[19] = Preemergence, Rate 62 g/ha, scale 0 to 10, 0 is no effect, 10 is complete control
[20] = Preemergence, Rate 125 g/ha, scale 0 to 10 (0 no effect, 10 complete control)
[21] = Preemergence, Rate 250 g/ha, scale of 0 to 10 where 0 is no effect and 10 is complete control
[22] = Preemergence, Rate 500 g/ha, scale 0 (no effect) to 10 (complete control)
[23] = Rate 125 g/ha, Postemergence, scale 0 to 10, 0 no effect, 10 complete control
[24] = Rate 500 g/ha, Postemergence, 0 to 10 scale (0 no effect, 10 complete control)
[25] = Rate 125 g/ha, Postemergence section (flood test species), scale 0 to 10, 0 no effect, 10 complete control
[26] = flood test, listed under Postemergence, Rate 250 g/ha, scale 0 to 10, 0 no effect, 10 complete control
[27] = Rate 500 g/ha, Postemergence section of Table B, 0 to 10 scale (0 no effect, 10 complete control)

CCN(CC)C(=O)n1oc(=O)n(-c2cc(Cl)cc(Cl)c2)c1=O [Compound 11]
Blackgrass plant response rating [1, 17]: 0 | Blackgrass plant response rating [1, 18]: 0 | Plant response rating, Blackgrass [1, 19]: 0 | Plant response rating, Blackgrass [1, 20]: 0 | Plant response rating, Blackgrass [1, 21]: 0 | Blackgrass plant response rating [1, 22]: 0 | Blackgrass plant response rating [1, 23]: 0 | Blackgrass plant response rating [1, 24]: 0 | Corn plant response rating [2, 17]: 0 | Corn plant response rating [2, 18]: 0 | Plant response rating, Corn [2, 19]: 0 | Plant response rating, Corn [2, 20]: 0 | Plant response rating, Corn [2, 21]: 0 | Corn plant response rating [2, 22]: 0 | Corn plant response rating [2, 23]: 0 | Corn plant response rating [2, 24]: 0 | S. Flatsedge plant response rating [3, 17]: 0 | S. Flatsedge plant response rating [3, 25]: 0 | S. Flatsedge plant response rating [3, 26]: 0 | Velvetleaf plant response rating [4, 17]: 0 | Velvetleaf plant response rating [4, 18]: 0 | Plant response rating, Velvetleaf [4, 19]: 0 | Plant response rating, Velvetleaf [4, 20]: 0 | Plant response rating, Velvetleaf [4, 21]: 0 | Velvetleaf plant response rating [4, 22]: 0 | Velvetleaf plant response rating [4, 23]: 0 | Rape plant response rating [5, 17]: 0 | Rape plant response rating [5, 18]: 0 | Plant response rating, Rape [5, 19]: 0 | Plant response rating, Rape [5, 20]: 0 | Plant response rating, Rape [5, 21]: 0 | Rape plant response rating [5, 22]: 0 | Rape plant response rating [5, 23]: 0 | Rape plant response rating [5, 24]: 0 | Soybean plant response rating [6, 17]: 0 | Soybean plant response rating [6, 18]: 0 | Plant response rating, Soybean [6, 19]: 0 | Plant response rating, Soybean [6, 20]: 0 | Plant response rating, Soybean [6, 21]: 0 | Soybean plant response rating [6, 22]: 0 | Soybean plant response rating [6, 23]: 0 | Nutsedge plant response rating [7, 17]: 0 | Nutsedge plant response rating [7, 18]: 0 | Plant response rating, Nutsedge [7, 19]: 0 | Plant response rating, Nutsedge [7, 20]: 0 | Plant response rating, Nutsedge [7, 21]: 0 | Nutsedge plant response rating [7, 22]: 0 | Nutsedge plant response rating [7, 23]: 0 | Nutsedge plant response rating [7, 24]: 0 | Redroot pigweed plant response rating [8, 17]: 0 | Redroot pigweed plant response rating [8, 18]: 0 | Plant response rating, Redroot pigweed [8, 19]: 0 | Plant response rating, Redroot pigweed [8, 20]: 0 | Plant response rating, Redroot pigweed [8, 21]: 0 | Redroot pigweed plant response rating [8, 22]: 0 | Redroot pigweed plant response rating [8, 23]: 0 | Redroot pigweed plant response rating [8, 24]: 0 | Morningglory plant response rating [9, 17]: 0 | Morningglory plant response rating [9, 18]: 0 | Plant response rating, Morningglory [9, 19]: 0 | Plant response rating, Morningglory [9, 20]: 0 | Plant response rating, Morningglory [9, 21]: 0 | Morningglory plant response rating [9, 22]: 0 | Morningglory plant response rating [9, 23]: 0 | Morningglory plant response rating [9, 24]: 0 | Cocklebur plant response rating [10, 17]: 0 | Cocklebur plant response rating [10, 18]: 0 | Plant response rating, Cocklebur [10, 19]: 0 | Plant response rating, Cocklebur [10, 20]: 0 | Plant response rating, Cocklebur [10, 21]: 0 | Cocklebur plant response rating [10, 22]: 0 | Cocklebur plant response rating [10, 23]: 0 | Cocklebur plant response rating [10, 24]: 0 | Wheat plant response rating [11, 17]: 0 | Wheat plant response rating [11, 18]: 0 | Plant response rating, Wheat [11, 19]: 0 | Plant response rating, Wheat [11, 20]: 0 | Plant response rating, Wheat [11, 21]: 0 | Wheat plant response rating [11, 22]: 0 | Wheat plant response rating [11, 23]: 0 | Crabgrass plant response rating [12, 17]: 0 | Crabgrass plant response rating [12, 18]: 0 | Plant response rating, Crabgrass [12, 19]: 0 | Plant response rating, Crabgrass [12, 20]: 0 | Plant response rating, Crabgrass [12, 21]: 0 | Crabgrass plant response rating [12, 22]: 8 | Crabgrass plant response rating [12, 23]: 0 | Crabgrass plant response rating [12, 24]: 0 | Rice plant response rating [13, 17]: 0 | Rice plant response rating [13, 25]: 0 | Rice plant response rating [13, 27]: 0 | Rice plant response rating [13, 26]: 0 | Sugarbeets plant response rating [14, 17]: 0 | Sugarbeets plant response rating [14, 18]: 0 | Plant response rating, Sugarbeets [14, 19]: 0 | Plant response rating, Sugarbeets [14, 20]: 0 | Plant response rating, Sugarbeets [14, 21]: 0 | Sugarbeets plant response rating [14, 22]: 0 | Sugarbeets plant response rating [14, 23]: 0 | Ducksalad plant response rating [15, 17]: 0 | Ducksalad plant response rating [15, 25]: 0 | Ducksalad plant response rating [15, 27]: 0 | Ducksalad plant response rating [15, 26]: 0 | Giant foxtail plant response rating [16, 17]: 0 | Giant foxtail plant response rating [16, 18]: 0 | Plant response rating, Giant foxtail [16, 19]: 0 | Plant response rating, Giant foxtail [16, 20]: 0 | Plant response rating, Giant foxtail [16, 21]: 0 | Giant foxtail plant response rating [16, 22]: 3 | Giant foxtail plant response rating [16, 23]: 0 | Giant foxtail plant response rating [16, 24]: 0
